Data taken from the NIST ThermoML archive (doi:10.1007/s10765-009-0610-6).
± gives the expanded uncertainty stated by the source.

Settings: Liquid; for mass density: 101.33 kPa, Vibrating tube method; for speed of sound: Pulse-echo method

BrCCCBr [1,3-dibromopropane]
Settings | mass density [kg/m3]
292.55 K | 1980.22 ± 1.2
297.98 K | 1970.22 ± 1.2
303.07 K | 1961.58 ± 1.2
308.02 K | 1952.84 ± 1.2
314.58 K | 1941.18 ± 1.2

Settings | speed of sound [m/s]
292.66 K, 100 kPa | 1078.9 ± 1.2
292.72 K, 15200 kPa | 1114.4 ± 2.3
292.78 K, 30400 kPa | 1148.6 ± 2.3
292.79 K, 45600 kPa | 1180.5 ± 2.3
292.8 K, 60810 kPa | 1210.8 ± 2.3
292.8 K, 91220 kPa | 1265.8 ± 2.4
292.82 K, 76010 kPa | 1239.1 ± 2.4
292.83 K, 101350 kPa | 1283 ± 2
298.03 K, 76000 kPa | 1227.5 ± 2.4
298.04 K, 45600 kPa | 1167.8 ± 2.3
298.04 K, 60810 kPa | 1198.5 ± 2.4
298.04 K, 91210 kPa | 1255 ± 2.4
298.05 K, 30400 kPa | 1135.1 ± 2.3
298.07 K, 15210 kPa | 1100.1 ± 2.3
298.08 K, 101330 kPa | 1272.4 ± 2.4
298.61 K, 100 kPa | 1062.6 ± 1.2
302.95 K, 15210 kPa | 1087.4 ± 2.3
302.95 K, 30410 kPa | 1123 ± 2.3
302.95 K, 45600 kPa | 1156.1 ± 2.3
302.95 K, 60790 kPa | 1187.2 ± 2.3
302.95 K, 76010 kPa | 1216.7 ± 2.4
302.95 K, 91220 kPa | 1244.5 ± 2.4
302.95 K, 101350 kPa | 1262.3 ± 2.4
303.58 K, 100 kPa | 1049 ± 1.2
308.04 K, 76010 kPa | 1205.6 ± 2.4
308.04 K, 91210 kPa | 1233.7 ± 2.4
308.04 K, 101350 kPa | 1251.8 ± 2.4
308.05 K, 15210 kPa | 1074.3 ± 2.3
308.05 K, 30410 kPa | 1110.5 ± 2.3
308.05 K, 45620 kPa | 1144.2 ± 2.3
308.05 K, 60820 kPa | 1175.8 ± 2.3
308.67 K, 100 kPa | 1035.3 ± 1.2
313.41 K, 15230 kPa | 1060.7 ± 2.3
313.41 K, 30410 kPa | 1097.5 ± 2.3
313.41 K, 45610 kPa | 1131.7 ± 2.3
313.41 K, 60800 kPa | 1163.8 ± 2.4
313.41 K, 76010 kPa | 1194 ± 2.4
313.42 K, 91200 kPa | 1222.6 ± 2.4
313.42 K, 101330 kPa | 1240.8 ± 2.4
314.7 K, 100 kPa | 1019 ± 1.2

BrCCCCCBr [1,5-dibromopentane]
Settings | speed of sound [m/s]
292.38 K, 100 kPa | 1149.5 ± 1.2
292.47 K, 91200 kPa | 1354 ± 2.4
292.48 K, 30400 kPa | 1226.2 ± 2.3
292.5 K, 45600 kPa | 1260.8 ± 2.3
292.52 K, 60800 kPa | 1293.4 ± 2.4
292.53 K, 15210 kPa | 1189.1 ± 2.3
292.57 K, 101320 kPa | 1372.2 ± 2.4
292.59 K, 76010 kPa | 1324.4 ± 2.4
298 K, 60800 kPa | 1281.2 ± 2.4
298 K, 91200 kPa | 1342.4 ± 2.4
298 K, 101330 kPa | 1361.6 ± 2.4
298.01 K, 45600 kPa | 1248 ± 2.3
298.02 K, 30410 kPa | 1212.7 ± 2.3
298.03 K, 15210 kPa | 1174.8 ± 2.3
298.05 K, 76000 kPa | 1312.6 ± 2.4
298.37 K, 100 kPa | 1133 ± 1.2
303 K, 76000 kPa | 1302 ± 2.4
303.01 K, 15200 kPa | 1162.1 ± 2.3
303.01 K, 30400 kPa | 1200.6 ± 2.3
303.01 K, 60790 kPa | 1270 ± 2.4
303.01 K, 91200 kPa | 1331.8 ± 2.4
303.01 K, 101340 kPa | 1350.7 ± 2.4
303.02 K, 45600 kPa | 1236.5 ± 2.3
303.4 K, 100 kPa | 1119.3 ± 1.2
308.03 K, 15210 kPa | 1148.7 ± 2.3
308.03 K, 30410 kPa | 1187.7 ± 2.3
308.03 K, 45590 kPa | 1224 ± 2.3
308.05 K, 101330 kPa | 1340 ± 2.4
308.06 K, 60790 kPa | 1257.9 ± 2.4
308.06 K, 76000 kPa | 1290.1 ± 2.4
308.06 K, 91200 kPa | 1320.5 ± 2.4
308.38 K, 100 kPa | 1105.8 ± 1.2
313.14 K, 76030 kPa | 1279.3 ± 2.4
313.16 K, 91210 kPa | 1310.1 ± 2.4
313.16 K, 101330 kPa | 1330 ± 2.4
313.17 K, 45610 kPa | 1212.3 ± 2.3
313.18 K, 60800 kPa | 1246.8 ± 2.4
313.2 K, 15210 kPa | 1135.8 ± 2.3
313.2 K, 30410 kPa | 1175.5 ± 2.3
314.36 K, 100 kPa | 1089.7 ± 1.2
